Results from patent US8298781B2, “Compositions and methods for characterizing and regulating olfactory sensation” (Duke University, priority 2007, dated 2012).

System: human subjects
Assay: Human olfactory psychophysics: detection thresholds (single staircase method)
Type: in vivo
Conditions: for detection threshold, RT/S84N subjects vs RT/RT controls: N=3 RT/S84N; for detection threshold, RT/P79L subjects vs RT/RT subjects: N=12 RT/P79L; for detection threshold, OR7D4 RT/WM vs RT/RT subjects: binary dilutions in propylene glycol, N=49 RT/WM, N=47 RT/RT
Experimental: Human olfactory psychophysics. All human subjects gave informed consent to participate in this study and were tested in a well-ventilated room. Normal human subjects (n=412; 218 female, 194 male; median age 34, age range 19-75) were pre-screened to exclude pregnant women and those with medical conditions causing general impairment of the sense of smell. All subjects completed two replicates of the test separated by at least 4 days. Odors were presented in amber vials as previously described (see, e.g., Keller, A., et al., Nat Neurosci 7, 337-338 (2004); herein incorporated by reference in its entirety) using bar-coded symbols to ensure that subjects were blind to the identity of all odors. The intensity and valence of 66 odors at two concentrations (“high” and “low”) and two solvents was rated using a 7-point scale. Thresholds were calculated using the single staircase method with seven reversals (see, e.g., Doty, R. L., et al., Chem Senses 20, 645-656 (1995); Doty, R. L. & Laing, D. G. in Handbook of Olfaction and Gustation (ed. Doty, R. L.) pp. 203-228 (Marcel Dekker, Inc., New York, 2003); each of which are herein incorporated by reference in their entireties). Threshold tests included both steroids as binary dilutions from […] (binary dilution 6) to 1: 134,217,728 (binary dilution 27). Subjects who could not reliably distinguish a 1:64 dilution of androstenone and androstadienone from solvent were operationally defined as anosmic to these odorous steroids, although it could not be excluded that these subjects could detect higher concentrations of these steroids (see, e.g., Bremner, E. A., et al., Chem Senses 28, 423-432 (2003); herein incorporated by reference in its entirety). Odor profiling used the method established by Dravnieks, et al. (see, e.g., Dravnieks, A., et al., Science 218, 799-801 (1982); herein incorporated by reference in its entirety).
For the descriptors task, the following odors and concentrations were used: propylene glcol (pure), pentadecalactone 1/500, vanillin 1/200, and androstenone 1/10,000. The following odors were used for thresholding: adrostenone and androstadienone. These were tested at an initial concentration of binary dilution 27 […] in propylene glycol and moved from there in binary steps. The range of dilutions tested was from binary dilution 27 (1:134,217,728) to binary dilution 6 (1:64). Odor vials used for intensity and valence ratings and the assigning of descriptors to odors were used for 40 sessions and then replaced by a new set. Master stocks of each odor were established at the beginning of the study to avoid intertrial variability in odor concentrations.
Threasholding. Detection thresholds (FIG. 3c and FIG. 5b-c) were determined using the “Single Staircase Threshold Detection Method” (see, e.g., Buck, L., et al., Cell 65, 175-187 (1991); Menashe, I., et al., Nat Genet. 34, 143-144 (2003); each of which are herein incorporated by reference in their entireties). This method produced very accurate data on the threshold concentration of a given dour and was easy to administer and for the subjects to perform. The thresholds for each subject on two occasions was tested at least four days apart. This helped to control for inter-trial variability in olfactory performance. The average difference between the thresholds determined on the two days was three binary dilution steps for andmstenone and five for androstadienone.
A custom computer-controlled thresholding test was administered as a self-test to each subject. Briefly, subjects were instructed to sniff two vials, one containing the solvent, the other a dilution of the odorant. Both vials have barcode labels and the procedure was done at a computer equipped with a scanner. Subjects are asked to scan the vial with the stronger odor. Depending on their answer, the procedure was repeated at an adjusted concentration. […]

SMILES: C[C@@]12C=CC[C@H]1[C@@H]1CCC3=CC(=O)CC[C@]3(C)[C@H]1CC2 [androstadienone, androsta-4,16-dien-3-one]
- detection threshold, RT/S84N subjects vs RT/RT controls: higher
- detection threshold, RT/P79L subjects vs RT/RT subjects: lower
- detection threshold, OR7D4 RT/WM vs RT/RT subjects: higher detection thresholds

SMILES: C[C@]12CCC(=O)C[C@@H]1CC[C@@H]1[C@@H]2CC[C@]2(C)C=CC[C@@H]12 [androstenone, 5α-androst-16-en-3-one]
- detection threshold, RT/S84N subjects vs RT/RT controls: higher
- detection threshold, RT/P79L subjects vs RT/RT subjects: lower
- detection threshold, OR7D4 RT/WM vs RT/RT subjects: higher detection thresholds
- incidence of specific anosmia, OR7D4 RT/WM vs RT/RT subjects (p<0.05, chi-square test): greater incidence
- proportion of subjects anosmic, RT/P79L vs RT/RT subjects (p=0.018, chi-square analysis): lower
